The text below walks through data of patent US7439250B2, “Compositions and methods related to fatty amino acid derivatives” (Board of Regents, The University of Texas System, priority 2002, dated 2008).

A short description of data set [1]: pH sensitivity of liposomes: turbidity (absorbance at 400 nm) as a function of pH titration. The following applies: samples (50 μl) in 3 ml PBS titrated with HCl; pH lowered from 4.5 to 3.5; DSPC samples extruded to 100 nm. In kind it is physicochemical. The protocol:
FIG. 2 illustrates the absorbance change as a function of pH titration. Samples (50 μl) in 3 ml of PBS were titrated with HCl. The pH was measured and absorbence read at 400 nm.
The DSPC MLV samples were then processed by extrusion to form liposomes with diameters of 100 nm. The pH sensitivity of the liposomes were compared by monitoring turbidity at 400 nm as a function of pH. […] This feature of ALP may be useful in certain applications where pH plays a role.

Data set [2] is described as follows: Liposome preparation by lipid film rehydration, observed by light microscopy. The following applies: PBS pH 7.2, 55° C. In kind it is physicochemical. The protocol:
Two ALPs of General Formula 1 were prepared, a) laurylaldehyde (X=O and R^1, R^2=C11H23) or b) (S,S)-(3-Octadecanoyl-6-oxo-2-undecyl-hexahydro-pyrimidine-4-carboxlic acid and tested for the ability to form liposomes and for its suitability as a component of liposomes containing phospholipids and cholesterol. Liposomes were prepared by mixing varying amounts of the phospholipid, distearoyl phosphatidylcholine (DSPC), cholesterol or ALP in chloroform. The chloroform was removed to form a thin lipid film. After vacuum desiccation overnight, each lipid formulation was rehydrated with phosphate buffered saline (PBS), pH 7.2, warmed to 55° C. (phase transition temperature of DSPC) and vortexed vigorously to form multilamellar liposomes (MLV). Aliquots of each MLV formulation were set aside and observed by light microscopy. DSPC MLV, DSPC MLV containing 10 mole % ALP, ALP lipid structures (3 mg/ml) and ALP lipid structures (30 mg/ml), respectively, were imaged.

SMILES strings stand for the structures.

Consider `CCCCCCCCCCCCCCCCCC(=O)N1[C@@H](CCCCCCCCCCC)NC(=O)C[C@H]1C(=O)O` [ALP], for which the “absorbance change at 400 nm as a function of pH (pH sensitivity)” value in data set [1] was “increased”. The “structures formed on rehydration (light microscopy)” value in data set [2] (ALP alone at high concentrations (30 mg/ml)) is “crystal structures were evident”; in data set [2] (ALP alone at low concentrations (3 mg/ml)) it was “typically form liposomes”.
